Experimental data: publication PMC4263610, “Derivation of ligands for the complement C3a receptor from the C-terminus of C5a” (European Journal of Pharmacology, 2014)
Blank lines part the entries; values can stand above or below the molecule they belong to. Ends that are not written are not given here.

Tests used:
[1] = target: C3a receptor (Homo sapiens, UniProt Q16581); test: xCELLigence, antagonism of peptide-evoked response by C3a receptor antagonist SB 290157 in HMDM; type: cell-based; conditions: n=3–5
Method: (§1) HMDM were seeded overnight at 30,000 cells/well in 384-well E-Plates (Roche). Approximately 24 h later, HMDM media were exchanged for serum-free IMDM and equilibrated at 37 °C and 5% CO2 for 2 h prior to ligand addition. Ligands were prepared at a final DMSO concentration of 0.5% (or less) in serum-free IMDM. […] After agonist addition, measurements were taken continuously for ~1.5 h at 37 °C. The RTCA software was used for data analysis, with statistical analysis using GraphPad Prism 5.0c (GraphPAD Software Inc., San Diego, CA).

[2] = target: T1, human monocyte-derived macrophages (HMDM) (Homo sapiens, UniProt Q16581); test: xCELLigence cell impedance assay, agonist activity on HMDM; type: cell-based; conditions: for EC50: xCELLigence impedance, dose-response, serum-free IMDM, 37 °C, n=3–5; for response in initial single dose screen: single dose of 8 μM, n=4–6, hit = P<0.001; for xCELLigence response profile: C3a and C5a at 100 nM
T1 sequence (Q16581 1-482): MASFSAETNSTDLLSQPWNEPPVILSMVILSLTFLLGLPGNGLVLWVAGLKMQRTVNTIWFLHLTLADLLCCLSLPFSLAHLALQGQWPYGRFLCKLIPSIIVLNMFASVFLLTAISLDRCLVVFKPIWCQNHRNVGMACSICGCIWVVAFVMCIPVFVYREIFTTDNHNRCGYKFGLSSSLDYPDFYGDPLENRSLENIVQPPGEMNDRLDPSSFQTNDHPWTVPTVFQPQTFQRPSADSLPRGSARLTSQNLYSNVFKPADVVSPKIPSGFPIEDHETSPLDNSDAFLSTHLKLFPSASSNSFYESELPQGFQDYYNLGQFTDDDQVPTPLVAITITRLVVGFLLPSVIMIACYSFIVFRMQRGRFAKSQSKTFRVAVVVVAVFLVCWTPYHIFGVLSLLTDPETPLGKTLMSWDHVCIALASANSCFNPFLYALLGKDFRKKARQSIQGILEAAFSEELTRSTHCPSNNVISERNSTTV
Method: Human monocytes were isolated from blood donations to the Australian Red Cross Blood Service (Kelvin Grove, Queensland). The isolation of mononuclear cells was as described previously by [Halai and Cooper (2012)]. Briefly, the mononuclear cell layer was separated using density gradient centrifugation with Ficoll-Paque Plus (GE Healthcare). MACS magnetic beads (Miltenyi Biotec) were incubated with the cells for 15 min at 4 °C before passing through an LS column (Miltenyi Biotec) to select for the CD14+ cells. Selected monocytes were plated at a density of 1.5×10^7 in Iscove׳s Modified Dulbecco׳s Medium (IMDM) (Invitrogen Life Technologies) containing L-glutamine supplemented with 10% Fetal Bovine Serum (FBS), 50 IU/ml penicillin and 50 μg/ml streptomycin. Human macrophage colony-stimulating factor (M-CSF) (Peprotech) was added to media to allow cells to differentiate into human monocyte-derived macrophages (HMDM). Over the 7 day differentiation process, cells were incubated at 37 °C and 5% CO2.
as §1

[3] = target: T2, human C3a receptor (Homo sapiens, UniProt Q16581); test: RBL-2H3 degranulation assay (β-hexosaminidase), agonist, human C3a receptor; type: cell-based; conditions: RBL-2H3 transfected with human C3a receptor, 100 µM peptide (Fig. 3 legend: 50 μM), 15 min, β-hexosaminidase secretion, relative to FLPLAR
T2 construct: expressed in transfected cells; host or cells: RBL-2H3 (rat basophilic leukemia) cells
T2 sequence (Q16581 1-482): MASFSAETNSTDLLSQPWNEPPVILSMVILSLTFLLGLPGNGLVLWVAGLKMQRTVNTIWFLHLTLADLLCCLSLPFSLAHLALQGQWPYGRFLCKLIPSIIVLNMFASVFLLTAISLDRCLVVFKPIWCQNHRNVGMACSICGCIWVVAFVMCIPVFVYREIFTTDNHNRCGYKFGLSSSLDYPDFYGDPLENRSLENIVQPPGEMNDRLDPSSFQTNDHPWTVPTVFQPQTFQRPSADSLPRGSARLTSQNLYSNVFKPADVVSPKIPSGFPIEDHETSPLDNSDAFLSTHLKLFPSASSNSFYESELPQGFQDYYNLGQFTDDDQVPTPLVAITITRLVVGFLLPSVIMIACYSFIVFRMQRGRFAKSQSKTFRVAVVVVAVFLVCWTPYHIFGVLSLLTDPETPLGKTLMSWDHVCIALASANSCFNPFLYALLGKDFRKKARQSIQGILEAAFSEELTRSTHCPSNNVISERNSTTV
Method: RBL-2H3 cells transfected with either human C5a1 or human C3a receptor ([Cain and Monk, 2002]) were routinely cultured in Dulbecco׳s Modified Eagle׳s Medium, 10% (v/v) fetal calf serum, and 400 mg/l G-418 at 37 °C in 5% CO2. Degranulation was measured by assaying for β-hexosaminidase activity in the cell supernatant, as described previously ([Monk et al., 1994]). In agonist assays, degranulation was calculated as a percentage of maximal activity in response to 200 nM recombinant human C3a, human C5a ([Cain and Monk, 2002]), or 10 nM agonist hexapeptide, FLPLAR ([Scully et al., 2010]). […]
RBL-2H3 cells transfected with either human C5a1 or human C3a receptor ([Cain and Monk, 2002]) were used to confirm hits detected in HMDM, using degranulation as a read-out ([Monk et al., 1994]). In cells transfected with C5a1, very weak agonist activity was detected in two groups of peptides, although even at 100 µM (the maximal dose achievable in the presence of the DMSO, which has adverse effects >1%), the activation obtained was 5–10% of the maximum activation achieved by a high dose of C5a (Fig. 3, top panel). […]
Fig. 3 Agonist activity of peptides at human C5a1 and C3a receptors expressed in rat basophilic leukemia cells (RBL-2H3). […] Degranulation was measured as the secretion of β-hexosaminidase. […]

[4] = system: C5a receptors; conditions: ref Taylor and Fairlie, 2005; cited from earlier work
Excerpt: C3a receptor/C5a1 promiscuity is not unusual and has been previously observed for whole C3a and a synthetic peptide agonist ([Ames et al., 1996]) and a chimeric C5a with the C3a C-terminal pentapeptide ([Bautsch et al., 1992]). In fact, early efforts to create potent and selective antagonists of C5a1 led to only partial agonists ([Taylor and Fairlie, 2005]).

IC50 ([1]; agonist peptide 20 at about its EC50, antagonist pre-incubated 1 h): 1.3 nM
IC50 ([1]; agonist peptide 31 at about its EC50, antagonist pre-incubated 1 h): 67 nM
IC50 ([1]; agonist peptide 47 at about its EC50, antagonist pre-incubated 1 h): 44 nM
IC50 ([1]; agonist peptide 49 at about its EC50, antagonist pre-incubated 1 h): 15 nM
IC50 ([1]; agonist peptide 54 at about its EC50, antagonist pre-incubated 1 h): 29 nM
Molecule: N=C(N)NCCC[C@H](NC(=O)COCC(c1ccccc1)c1ccccc1)C(=O)O [SB 290157]

Molecule: Ac-NNYNLWR-OH [Peptide 20, Ac-NNYNLWR]
EC50 [2]: 5800 nM
response in initial single dose screen ([2]; xCELLigence): significant hits

Molecule: Ac-RHYPLWR-OH [Peptide 31, Ac-RHYPLWR]
activation of C3a receptor (degranulation) [3]: very strong activation
EC50 [2]: 1100 nM
response in initial single dose screen ([2]; xCELLigence): significant hits

Molecule: Ac-RLYPLWR-OH [Peptide 47, Ac-RLYPLWR]
EC50 [2]: 1200 nM
response in initial single dose screen ([2]; xCELLigence): significant hits

Molecule: Ac-RYPLWR-OH [Peptide 54, Ac-RYPLWR]
activation of C3a receptor (degranulation) [3]: very strong activation
EC50 [2]: 3000 nM
response in initial single dose screen ([2]; xCELLigence): significant hits

Molecule: Ac-TIYRLWR [Peptide 49, Ac-TIYRLWR]
EC50 [2]: 17000 nM

response in initial single dose screen ([2]; xCELLigence): significant hits
Molecule: Ac-TLLRLWR [Peptide 48]
outcome of full dose range retest ([2]; xCELLigence, full dose range): a full dose response could not be obtained

Molecule: AcPhe[Lornithine-Pro-D-cyclohexylalanine-Trp-Arg] (sidechain bridge or staple) [PMX53, cyclic C5a1 antagonist]
receptor affinity [4]: low nanomolar range

xCELLigence response profile [2]: single peak profile
cell index (intensity of the signal) ([2]; xCELLigence): 1.98
time of signal peak after addition ([2]; xCELLigence): ~ 1 min
Molecule: C3a: complement fragment C3a, 77-residue protein, recombinant human [Peptide C3a]

xCELLigence response profile [2]: two-peak profile
cell index (intensity of the signal) ([2]; xCELLigence): 4.53
time of signal peak after addition ([2]; xCELLigence): ~ 4 min
B1: C5a: complement fragment C5a, 74-residue protein, human (protein, UniProt P01031 678-751, looked up)
C5a anaphylatoxin: TLQKKIEEIAAKYKHSVVKKCCYDGACVNNDETCEQRAARISLGPRCIKAFTECCVVASQLRANISHKDMQLGR
modifications: C5a anaphylatoxin
notes: complement fragment C5a, 74-residue protein, human
